Data taken from patent publication US12258329B2 (Merck Sharp & Dohme LLC, priority 2018, dated 2025).

Test system: infected PBMCs (VSV-G pseudotyped HIV virus VSV-G/pNLG1-P2A-ΔEnv)
Experiment: cells
Format: cell-based, human
Conditions: Homo sapiens, PBMC, read-out: TACK EC50

Point of comparison: `Cc1nc(C)c(Cn2cnc(C(F)(F)C(F)F)c(Oc3cc(C(F)(F)F)cc(C#N)c3Cl)c2=O)c(=O)[nH]1` [Example 94, 2-chloro-3-((1-((2,4-dimethyl-6-oxo-1,6-dihydropyrimidin-5-yl)methyl)-6-oxo-4-(1,1,2,2-tetrafluoroethyl)-1,6-dihydropyrimidin-5-yl)oxy)-5-(trifluoromethyl)benzonitrile], EC50 0.492 µM. Against it:
- Cc1nc(N)c(Cn2cnc(C(F)(F)C(F)(F)F)c(Oc3cc(Cl)cc(C#N)c3F)c2=O)c(=O)[nH]1 [Example 38, 3-((1-((4-amino-2-methyl-6-oxo-1,6-dihydropyrimidin-5-yl)methyl)-6-oxo-4-(perfluoroethyl)-1,6-dihydropyrimidin-5-yl)oxy)-5-chloro-2-fluorobenzonitrile] — within 1.5-fold, 0.481 µM
- Cc1nc(C)c(Cn2cnc(C(F)(F)C(F)F)c(Oc3c(C)cc(C#N)cc3C)c2=O)c(=O)[nH]1 [Example 75, 4-((1-((2,4-dimethyl-6-oxo-1,6-dihydropyrimidin-5-yl)methyl)-6-oxo-4-(1,1,2,2-tetrafluoroethyl)-1,6-dihydropyrimidin-5-yl)oxy)-3,5-dimethylbenzonitrile] — 2.4-fold lower, 0.209 µM
- Cc1nc(C)c(Cn2cnc(C(F)(F)F)c(Oc3cc(C(F)F)cc(C#N)c3C)c2=O)c(=O)[nH]1 [Example 8, 5-(difluoromethyl)-3-((1-((2,4-dimethyl-6-oxo-1,6-dihydropyrimidin-5-y1)methyl)-6-oxo-4-(trifluoromethyl)-1,6-dihydropyrimidin-5-y1)oxy)-2-methylbenzonitrile] — 2-fold lower, 0.252 µM
- Cc1nc(C)c(Cn2cnc(C(F)(F)C(F)(F)F)c(Oc3cc(C#N)cc(C(F)F)c3)c2=O)c(=O)[nH]1 [Example 84] — 1.7-fold lower, 0.291 µM
- Cc1nc(C)c(Cn2cnc(C(F)(F)C(F)(F)F)c(Oc3c(Cl)cc(C#N)cc3Cl)c2=O)c(=O)[nH]1 [Example 96, 3,5-dichloro-4-((1-((2,4-dimethyl-6-oxo-1,6-dihydropyrimidin-5-yl)methyl)-6-oxo-4-(perfluoroethyl)-1,6-dihydropyrimidin-5-yl)oxy)benzonitrile] — within 1.5-fold, 0.367 µM
- Cc1nc(C)c(Cn2cnc(C(C)F)c(Oc3c(C)cc(C#N)cc3Cl)c2=O)c(=O)[nH]1 (single isomer, unassigned) [Example 18, (S) or (R)-3-chloro-4-((1-((2,4-dimethyl-6-oxo-1,6-dihydropyrimidin-5-y1)methyl)-4-(1-fluoroethyl)-6-oxo-1,6-dihydropyrimidin-5-yl)oxy)-5-methylbenzonitrile] — 3.8-fold lower, 0.129 µM
- Cc1nc(C)c(Cn2cnc(C(C)(F)F)c(Oc3cc(Cl)cc(C#N)c3C)c2=O)c(=O)[nH]1 [Example 4, 5-chloro-3-((4-(1,1-difluoroethyl)-1-((2,4-dimethyl-6-oxo-1,6-dihydropyrimidin-5-yl)methyl)-6-oxo-1,6-dihydropyrimidin-5-yl)oxy)-2-methylbenzonitrile] — within 1.5-fold, 0.412 µM
- Cc1cc(C#N)cc(C)c1Oc1c(C(F)(F)C(F)F)ncn(Cc2c(C)nc(CCCO)[nH]c2=O)c1=O [Example 50, 4-((1-((2-(3-hydroxypropyl)-4-methyl-6-oxo-1,6-dihydropyrimidin-5-yl)methyl)-6-oxo-4-(1,1,2,2-tetrafluoroethyl)-1,6-dihydropyrimidin-5-yl)oxy)-3,5-dimethylbenzonitrile] — 2-fold lower, 0.25 µM
- Cc1nc(N)c(Cn2cnc(C(C)(F)F)c(Oc3cc(Cl)cc(C#N)c3F)c2=O)c(=O)[nH]1 [Example 58, 3-((1-((4-amino-2-methyl-6-oxo-1,6-dihydropyrimidin-5-yl)methyl)-4-(1,1-difluoroethyl)-6-oxo-1,6-dihydropyrimidin-5-yl)oxy)-5-chloro-2-fluorobenzonitrile] — 2-fold lower, 0.252 µM

Same assay, conditions: read-out: TACK EC50

In the case of `COc1c(C#N)cc(C(F)F)cc1Oc1c(C(C)F)ncn(Cc2c(C)nc(C)[nH]c2=O)c1=O` (single isomer, unassigned) [Example 36], the EC50 is reported as 0.0723 µM.
